GI50 and TGI data for 17 molecules are collected here from PubChem BioAssay (NCI).

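Exposure lasted 48 hours, with cells grown in 96-well plates and compounds tested at five concentrations. GI50 = concentration required for 50% inhibition of growth. TGI is the concentration that stops growth completely.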

Holding throughout (experiment): NCI tumour cell line growth inhibition, 48 h
Experiment [1] relates to KM12 colon.
In experiment [2] the test system is T-47D breast.
Experiment [3] deals with MCF7 breast.
Experiment [4] relates to SK-MEL-28 melanoma.
For experiment [5], the system named is HCT-15 colon.
Experiment [6] relates to RXF 393 renal.
In experiment [7] the test system is UACC-257 melanoma.

For the molecule `Cc1c2c(nn1C(=O)c1nn(-c3ccc(Cl)cc3)cc1O)-c1ccccc1CC2`, the GI50 in experiment [1] is 63.2 nM; in experiment [2] it was 59.4 nM; in experiment [3] it was 115 nM; in experiment [4], 293 nM; in experiment [5], 49.6 nM; in experiment [6] it was 44.1 nM. Also, in experiment [7], the GI50 is 218 nM. Further, the TGI was over 100 µM in experiment [1]; over 100 µM in experiment [2]; over 100 µM in experiment [3]; over 100 µM in experiment [4]; over 100 µM in experiment [5]; over 42.8 µM in experiment [6]. Moreover, in experiment [7], the TGI worked out at 9.73 µM.

Regarding `O=C(Nc1ccccc1)Nc1cccc(-n2cc(-c3ccncc3)c(-c3ccc(O)c(Cl)c3)n2)c1`, the GI50 in experiment [1] is 3300 nM; in experiment [2], 4340 nM; in experiment [3] it was 2750 nM; in experiment [4], 3270 nM; in experiment [5], 2840 nM; in experiment [6], 2430 nM. Moreover, the GI50 in experiment [7] is 2120 nM. Besides, the TGI in experiment [1] was 10.5 µM; in experiment [2] it was 25.8 µM; in experiment [3], 17.8 µM; in experiment [4], 18.6 µM; in experiment [5], over 100 µM; in experiment [6] it was 9.63 µM. This molecule also returned a TGI in experiment [7] of 4.91 µM.

In the case of `O=[N+]([O-])c1cc(CCl)ccc1CCl`, the TGI worked out at 3.25 µM in experiment [1]; 1.03 µM in experiment [2]; 3.28 µM in experiment [3]; 5.01 µM in experiment [4]; 3.64 µM in experiment [5]; 1.65 µM in experiment [6]. Besides, the TGI in experiment [7] is over 20.1 µM.

For `N#CC(=S)Nc1ccc(Cl)c(Cl)c1`, the TGI in experiment [1] was over 95.6 µM; in experiment [2], over 74.8 µM; in experiment [3], over 73.4 µM; in experiment [4], over 62.7 µM; in experiment [5], 49.6 µM; in experiment [6], 52.4 µM. In addition, in experiment [7], the TGI is over 54.7 µM.

For the molecule `CCOC(=O)/C(=C/c1ccc([N+](=O)[O-])cc1)C(=O)c1ccccc1`, the GI50 is 2160 nM in experiment [1]; 2640 nM in experiment [2]; 2320 nM in experiment [3]; 2100 nM in experiment [4]; 1990 nM in experiment [5]; 2000 nM in experiment [6]. For the same molecule, the GI50 in experiment [7] was 3120 nM. The TGI worked out at 4.65 µM in experiment [1]; 8.35 µM in experiment [2]; 8.94 µM in experiment [3]; 4.73 µM in experiment [4]; 4.51 µM in experiment [5]; 3.67 µM in experiment [6]. The same molecule displayed a TGI in experiment [7] of 7.61 µM.

Regarding `Cn1ncc2c(/N=C/c3cccs3)[nH]c(=S)nc21`, the GI50 in experiment [1] is 28800 nM; in experiment [2], 35900 nM; in experiment [3] it was 27400 nM; in experiment [4], 56500 nM; in experiment [5], 42400 nM; in experiment [6], 26200 nM. Moreover, the GI50 in experiment [7] was over 65400 nM. Also, the TGI is over 59.4 µM in experiment [1]; over 100 µM in experiment [2]; over 80.3 µM in experiment [3]; over 100 µM in experiment [4]; over 100 µM in experiment [5]; over 73.3 µM in experiment [6]. In experiment [7], this molecule gave a TGI of over 100 µM.

For the molecule `O=C1N=C(c2ccccc2)OC1C(=O)c1ccccc1` (stereo not drawn), the TGI in experiment [1], in experiment [2], in experiment [3], in experiment [4], in experiment [5] and in experiment [6] was over 100 µM each time. Further, in experiment [7], the TGI was over 100 µM.

As to `COc1ccc(/C=C2\CN(Cc3cn(CCCNc4ccnc5cc(Cl)ccc45)nn3)C/C(=C\c3ccc(OC)c(OC)c3)C2=O)cc1OC`, the GI50 in experiment [1] is 304 nM; in experiment [2] it was 2420 nM; in experiment [3] it was 503 nM; in experiment [4] it was 2420 nM; in experiment [5] it was 2030 nM; in experiment [6], 1560 nM. In experiment [7], the GI50 was 2240 nM. For the same molecule, the TGI in experiment [1] is 1.07 µM; in experiment [2], 9.42 µM; in experiment [3] it was 2.45 µM; in experiment [4], 8.7 µM; in experiment [5] it was 5.02 µM; in experiment [6], 3.01 µM. Moreover, the TGI in experiment [7] was 12 µM.

As for `NC(CNO)C(=O)O` (stereo not drawn), the TGI in experiment [1], in experiment [2], in experiment [3], in experiment [4], in experiment [5] and in experiment [6] was over 100 µM each time. In experiment [7], the TGI was over 100 µM.

As for `ClCc1ccc(-c2ccc(Cn3cnc4c(Cl)nc(Cl)nc43)cc2)cc1`, the GI50 in experiment [1] was 2120 nM; in experiment [2], 1900 nM; in experiment [3], 1690 nM; in experiment [4] it was 1650 nM; in experiment [5], 1670 nM; in experiment [6], 1670 nM. The GI50 in experiment [7] was 1500 nM. The TGI in experiment [1] is 4.4 µM; in experiment [2], 4.64 µM; in experiment [3] it was 3.51 µM; in experiment [4], 3.1 µM; in experiment [5], 3.35 µM; in experiment [6] it was 3.38 µM. The molecule further gave a TGI in experiment [7] of 3.64 µM.

Take `COC(=O)C(C)NP(=O)(OCc1ccc(Cn2cnc3c(=O)[nH]c(N)nc32)cc1)Oc1ccccc1` (stereo not drawn): the GI50 in experiment [1] is over 100000 nM; in experiment [2], 34600 nM; in experiment [3] it was over 100000 nM; in experiment [4], over 100000 nM; in experiment [5] it was over 100000 nM; in experiment [6], over 100000 nM. Besides, in experiment [7], the GI50 was over 100000 nM. Moreover, the TGI in experiment [1], in experiment [2], in experiment [3], in experiment [4], in experiment [5] and in experiment [6] was over 100 µM each time. Moreover, the TGI in experiment [7] was over 100 µM.

In the case of `O=C(Nc1n[nH]c2nc(-c3ccco3)ccc12)C1CC1`, the GI50 in experiment [1], in experiment [2], in experiment [3], in experiment [4], in experiment [5] and in experiment [6] was over 25000 nM throughout. The GI50 in experiment [7] was over 25000 nM. The TGI in experiment [1], in experiment [2], in experiment [3], in experiment [4], in experiment [5] and in experiment [6] was over 25 µM in each case. The TGI in experiment [7] was over 25 µM.

In the case of `Cc1n[nH]c(=S)n1/N=C/c1ccc(F)c(Oc2ccccc2)c1`, the GI50 in experiment [1] is 41300 nM; in experiment [2], over 100000 nM; in experiment [3] it was 41400 nM; in experiment [4], 7100 nM; in experiment [5] it was 49700 nM; in experiment [6], over 100000 nM. In addition, in experiment [7], the GI50 is 25400 nM. Besides, the TGI in experiment [1] is over 100 µM; in experiment [2], over 100 µM; in experiment [3] it was over 100 µM; in experiment [4] it was 82.6 µM; in experiment [5] it was over 100 µM; in experiment [6] it was over 100 µM. The molecule further came in with a TGI in experiment [7] of 75.3 µM.

`CCCc1cc2cc(-n3nc(C)c4c3CC(C)(C)CC4=O)cc(NC3CCC(O)CC3)c2c(=O)[nH]1` (stereo not drawn): the GI50 is 98.6 nM in experiment [1]; 99.4 nM in experiment [2]; 51.6 nM in experiment [3]; 232 nM in experiment [4]; 167 nM in experiment [5]; 113 nM in experiment [6]. Further, the GI50 in experiment [7] was 372 nM. In addition, the TGI was over 100 µM in experiment [1]; over 100 µM in experiment [2]; over 100 µM in experiment [3]; over 100 µM in experiment [4]; over 100 µM in experiment [5]; 2.92 µM in experiment [6]. The TGI in experiment [7] was over 100 µM.

Regarding `Nc1ncnc2c1nc(-c1ccccc1)n2C1OC(CO)C(O)C1O` (stereo not drawn), the TGI in experiment [1], in experiment [2], in experiment [3], in experiment [4], in experiment [5] and in experiment [6] was over 100 µM each time. This molecule also came in with a TGI in experiment [7] of over 100 µM.

With `CCOC(=O)c1ccc(N(CCOS(C)(=O)=O)CCOS(C)(=O)=O)cc1C`, the GI50 was 90400 nM in experiment [1]; 16600 nM in experiment [2]; 17500 nM in experiment [3]; over 100000 nM in experiment [4]; 28200 nM in experiment [5]; 17800 nM in experiment [6]. Further, in experiment [7], the GI50 was 69600 nM. Also, the TGI was over 100 µM in experiment [1]; 62.1 µM in experiment [2]; over 100 µM in experiment [3]; over 100 µM in experiment [4]; over 100 µM in experiment [5]; 33.3 µM in experiment [6]. The same molecule came in with a TGI in experiment [7] of over 100 µM.

For the molecule `COc1cc(/C=C2\CN(C)C/C(=C\c3cc(OC)c(OC)c(OC)c3)C2=O)cc(OC)c1OC`, the GI50 is 195 nM in experiment [1]; 1120 nM in experiment [2]; 317 nM in experiment [3]; 200 nM in experiment [4]; 214 nM in experiment [5]; 199 nM in experiment [6]. Moreover, in experiment [7], the GI50 was 245 nM. The TGI turned out to be 0.394 µM in experiment [1]; 5.02 µM in experiment [2]; 1.83 µM in experiment [3]; 0.429 µM in experiment [4]; 0.555 µM in experiment [5]; 0.389 µM in experiment [6]. For the same molecule, in experiment [7], the TGI was 0.758 µM.
